Results published in the NIST ThermoML archive (doi:10.1016/j.tca.2013.06.022).
Numbers after ± are expanded uncertainties.

Conditions: for Normal melting temperature: Crystal

SMILES | Normal melting temperature (visual observation) [°C] | Glass transition temperature (DTA) [°C] | Normal melting temperature (DTA) [°C]
CCC[n+]1cccc(C)c1.[Cl-] [1-propyl-3-methylpyridinium chloride] | 92.00 ± 5 | 18.50 ± 5 | 
CC[n+]1cccc(C)c1.[Cl-] [1-ethyl-3-methylpyridinium chloride] | 130.00 ± 5 | 29.00 ± 5 | 
CCCCCCCC[n+]1cccc(C)c1.[Cl-] [1-octyl-3-methylpyridinium chloride] | 74.00 ± 5 |  | 69.00 ± 5
CCCCC[n+]1cccc(C)c1.[Cl-] [1-pentyl-3-methylpyridinium chloride] | 92.00 ± 5 | 21.50 ± 5 | 
CCCC[n+]1cccc(C)c1.[Cl-] [1-butyl-3-methylpyridinium chloride] | 97.00 ± 5 | 35.00 ± 5 | 93.00 ± 5
CCCCCC[n+]1cccc(C)c1.[Cl-] [1-hexyl-3-methylpyridinium chloride] | 77.00 ± 5 |  | 62.00 ± 5
CCCCCCC[n+]1cccc(C)c1.[Cl-] [1-heptyl-3-methylpyridinium chloride] | 72.00 ± 5 | 16.50 ± 5 | 
CCCCCCCCCC[n+]1cccc(C)c1.[Cl-] [1-decyl-3-methylpyridinium chloride] | 64.00 ± 5 |  | 55.00 ± 5
CC[n+]1cccc(C)c1.[Br-] [1-ethyl-3-methylpyridinium bromide] | 163.00 ± 5 |  | 146.00 ± 5
C=CC[n+]1cccc(C)c1.[Cl-] [1-allyl-3-methylpyridinium chloride] | 108.00 ± 5 | 27.50 ± 5 | 
CCCCCCCCC[n+]1cccc(C)c1.[Cl-] [1-nonyl-3-methylpyridinium chloride] | 64.00 ± 5 |  | 
